Measurements from patent US20030172478A1, “Bipyrrolinonylidene-type compound, colorant therewith, and method of producton thereof” (DAINIPPON INK AND CHEMICALS, INC., priority 2002, published 2003).

Tests used:
[1] = solubility of the products in solvents; assay type: physicochemical
[2] = background statement; cited from earlier work

| SMILES | solubility in dimethyl sulfoxide ([1]; solvent dimethyl sulfoxide) | solubility in dimethylformamide ([1]; solvent dimethylformamide) | solubility in ethanol ([1]; solvent ethanol) | solubility in water and organic solvents [2] |
| --- | --- | --- | --- | --- |
| CCOC(=O)C1=C(c2ccccc2)NC(=O)/C1=C1/C(=O)NC(c2ccccc2)=C1C(=O)OCC [diethyl bipyrrolinonylidenedicarboxylate] | soluble | soluble | slightly soluble |  |
| O=C1NC(c2ccccc2)=C/C1=C1/C=C(c2ccccc2)NC1=O [formula (b), bipyrrolinonylidene] |  |  |  | poor solubility |
